Test results taken from patent US20230072421A1, “TARGETED RADIOPHARMACEUTICALS FOR THE DIAGNOSIS AND TREATMENT OF PROSTATE CANCER” (Bayer AS, priority 2019, published 2023).

How the values were obtained:
C4-2 cells = experiment: Cell proliferation assay (CellTiter-Glo, 5-day exposure), C4-2; format: cell-based; conditions: C4-2, 1000 cells/well, Th-227 labelled at 375 kBq/nmol, mean of 1 to 6 experiments
Procedure, shortened: (§1)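 Growth inhibition by radiolabelled (Th-227) PSMA small-molecule ligands is measured as ATP luminescence after 5 days of treatment, referenced to a day-0 reading from sister plates. VCaP are seeded at 4000 cells/well, the remaining lines at 1000 cells/well.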

VCaP cells = experiment: Cell proliferation assay (CellTiter-Glo, 5-day exposure), VCaP; format: cell-based; conditions: 4000 cells/well, Th-227 labelled at 375 kBq/nmol, mean of 1 to 6 experiments
Procedure, shortened: as §1

LNCaP cells = experiment: Cell proliferation assay (CellTiter-Glo, 5-day exposure), LNCaP; format: cell-based, human; conditions: LNCaP, 1000 cells/well; Th-227 labelled at 375 kBq/nmol; 5-day exposure; mean of 1 to 6 experiments
Protocol: Inhibition of cell proliferation of Thorium-227 labeled PMSA SMOL ligands was tested different prostate cancer cell lines, namely 22Rv1, VCaP, C4-2 (all from ATCC, Manassas, Va., USA) and LNCaP (DMSZ, Braunschweig). Cells were seeded using the following conditions in 384 well plates (Corning) in 30 μl of growth media at 4000 cells/well for VCaP cells and 1000 cells/well for 22Rv1, C4-2 and LNCaP cells.
Cells were cultivated an incubator at 37° C. and 5% C02 over night. On the following days cells were treated in triplicates with serial dilutions of PSMA-SMOLs labeled with Th-227 at a specific activity of 375 kBq/nmol (RCP>70% as assessed by iTLC analysis; compounds where RCP was between 50-70% in individual experiments are marked with an * in the table) using a D300e Digital Dispenser (Tecan). In sister plates cell viability at treatment start (d=0) was determined using CellTiter-Glo® assay (CTG, Promega, Madison, Wis., USA), by adding 30 μl per well CTG solution, incubation for 10 min and reading of Luminescence in a PheraStarFSX instrument (BMG Labtech). After a 5-day exposure in the presenced of test compounds, cell viability of treated or untreated control cells was determined again using CellTiter-Glo® assay (Promega, Madison, Wis., USA). […] The DRC software is a Biobook Spreadsheet that was developed by Bayer AG and Bayer Business Services on the IDBS E-Workbook Suite platform (IDBS: ID Business Solutions Ltd., Guildford, UK).

Molecule	Proliferation assay on cancer cell lines by TTCs Default Pivot #3 IC50 [kBq/mL] C4-2 1000cells 375kBq/nmol (mean) (C4-2 cells)	Proliferation assay on cancer cell lines by TTCs Default Pivot #3 IC50 [kBq/mL] VCap 4000cells 375kBq/nmol (mean) (VCaP cells)	Proliferation assay on cancer cell lines by TTCs Default Pivot #3 IC50 [kBq/mL] LnCap 1000cells 375kBq/nmol (mean) (LNCaP cells)
Cc1cc2c(c(=O)n1CC(=O)O)[O][227Th]13[O]c4c(cc(C)n(CC(=O)O)c4=O)C(=O)NCCN(CCCN(CCNC(=O)c4cc(C)n(CC(=O)O)c(=O)c4[O]1)CCNC(=O)c1cc(C)n(CC(=O)NCc4ccc(C(=O)N[C@@H](Cc5ccc6ccccc6c5)C(=O)NCCCC[C@H](NC(=O)N[C@H](CCC(=O)O)C(=O)O)C(=O)O)nc4)c(=O)c1[O]3)CCNC2=O [Example 25-C-D-227Th]	2.95 kBq/mL	2.26 kBq/mL	0.49 kBq/mL
COc1c(C[C@@H](NC(=O)c2ccc(CNC(=O)CN3CCN(CC(=O)[O-])CCN(CC(=O)[O-])CCN(CC(=O)[O-])CC3)cn2)C(=O)NCCCC[C@H](NC(=O)N[C@@H](CCC(=O)O)C(=O)O)C(=O)O)ccc2ccccc12.[227Th+4] [Example 33a-B-227Th, (3R,10S,14S)-3-[(1-methoxynaphthalen-2-yl)methyl]-1,4,12-trioxo-1-{5-[(2-{4,7,10-tris[(carboxy-kappaO)methyl]-1,4,7,10-tetraazacyclododecan-1-yl-kappa^2N^1,N^4}acetamido)methyl]pyridin-2-yl}-2,5,11,13-tetraazahexadecane-10,14,16-tricarboxylato(3−)(^227Th)Thorium]	4.63 kBq/mL	1.22 kBq/mL	0.20 kBq/mL
CNc1cc(C[C@@H](NC(=O)[C@H]2CC[C@H](CNC(=O)CN3CCN4CCN5CCN(CC3)CC(=O)[O][227Th]([O]C(=O)C4)[O]C(=O)C5)CC2)C(=O)NCCCC[C@H](NC(=O)N[C@@H](CCC(=O)O)C(=O)O)C(=O)O)cc2ccccc12 [Example 37-B-227Th, (3R,10S,14S)-3-{[4-(methylamino)naphthalen-2-yl]methyl}-1,4,12-trioxo-1-{(1r,4S)-4-[(2-{4,7,10-tris[(carboxy-kappaO)methyl]-1,4,7,10-tetraazacyclododecan-1-yl-kappa^2N^1,N^4}acetamido)methyl]cyclohexyl}-2,5,11,13-tetraazahexadecane-10,14,16-tricarboxylato(3−)(^227Th)Thorium]	1.19 kBq/mL	0.87 kBq/mL	0.13 kBq/mL
O=C(O)CC[C@H](NC(=O)N[C@@H](CCCCNC(=O)[C@@H](Cc1ccc2c(c1)CCCO2)NC(=O)[C@H]1CC[C@H](CNC(=O)C[N+]23CCN4CCN5CC[N+]6(CC2)CC(=O)[O][227Th-2]36([O]C(=O)C4)[O]C(=O)C5)CC1)C(=O)O)C(=O)O [Example 38-B-227Th, {N^6-[3-(3,4-dihydro-2H-1-benzopyran-6-yl)-N-{(1r,4S)-4-[(2-{4,7,10-tris[(carboxy-kappaO)methyl]-1,4,7,10-tetraazacyclododecan-1-yl-kappa^2N^1,N^4}acetamido)methyl]cyclohexane-1-carbonyl}-D-alanyl]-N^2-{[(1S)-1,3-dicarboxypropyl]carbamoyl}-L-lysinato(3−)}(^227Th)Thorium]	0.91 kBq/mL	0.44 kBq/mL	0.10 kBq/mL
O=C(O)CC[C@H](NC(=O)N[C@@H](CCCCNC(=O)[C@@H](Cc1ccc2ccncc2c1)NC(=O)[C@H]1CC[C@H](CNC(=O)C[N+]23CCN4CCN5CC[N+]6(CC2)CC(=O)[O][227Th-2]36([O]C(=O)C4)[O]C(=O)C5)CC1)C(=O)O)C(=O)O [Example 42-B-227Th, (3R,10S,14S)-3-[(isoquinolin-7-yl)methyl]-1,4,12-trioxo-1-{(1r,4S)-4-[(2-{4,7,10-tris[(carboxy-kappaO)methyl]-1,4,7,10-tetraazacyclododecan-1-yl-kappa^2N^1,N^4}acetamido)methyl]cyclohexyl}-2,5,11,13-tetraazahexadecane-10,14,16-tricarboxylato(3−)(^227Th)Thorium]	0.72 kBq/mL	0.70 kBq/mL	0.10 kBq/mL
O=C(O)CC[C@H](NC(=O)N[C@@H](CCCCNC(=O)[C@@H](Cc1ccc2cnccc2c1)NC(=O)[C@H]1CC[C@H](CNC(=O)C[N+]23CCN4CCN5CC[N+]6(CC2)CC(=O)[O][227Th-2]36([O]C(=O)C4)[O]C(=O)C5)CC1)C(=O)O)C(=O)O [Example 44-B-227Th, (3R,10S,14S)-3-[(isoquinolin-6-yl)methyl]-1,4,12-trioxo-1-{(1r,4S)-4-[(2-{4,7,10-tris[(carboxy-kappaO)methyl]-1,4,7,10-tetraazacyclododecan-1-yl-kappa^2N^1,N^4}acetamido)methyl]cyclohexyl}-2,5,11,13-tetraazahexadecane-10,14,16-tricarboxylato(3−)(^227Th)Thorium]	0.67 kBq/mL	0.71 kBq/mL	0.08 kBq/mL
O=C(O)CC[C@H](NC(=O)N[C@@H](CCCCNC(=O)[C@@H](Cc1ccc2cccnc2c1)NC(=O)[C@H]1CC[C@H](CNC(=O)C[N+]23CCN4CCN5CC[N+]6(CC2)CC(=O)[O][227Th-2]36([O]C(=O)C4)[O]C(=O)C5)CC1)C(=O)O)C(=O)O [Example 45-B-227Th, (3R,10S,14S)-1,4,12-trioxo-3-[(quinolin-7-yl)methyl]-1-{(1r,4S)-4-[(2-{4,7,10-tris[(carboxy-kappaO)methyl]-1,4,7,10-tetraazacyclododecan-1-yl-kappa^2N^1,N^4}acetamido)methyl]cyclohexyl}-2,5,11,13-tetraazahexadecane-10,14,16-tricarboxylato(3−)(^227Th)Thorium]	1.02 kBq/mL	0.94 kBq/mL	0.14 kBq/mL
{N^6-[3-(isoquinolin-3-yl)-N-{(1r,4S)-4-[(2-{4,7,10-tris[(carboxy-kappaO)methyl]-1,4,7,10-tetraazacyclododecan-1-yl-kappa^2N^1,N^4}acetamido)methyl]cyclohexane-1-carbonyl}alanyl]-N^2-{[(1S)-1,3-dicarboxypropyl]carbamoyl}-L-lysinato(3−)}(^227Th)Thorium [Example 36-B-227Th]	3.88 kBq/mL	0.75 kBq/mL	0.16 kBq/mL
